In patent US20120094958A1, “QUINOLINES AS INHIBITORS OF FARNESYL PYROPHOSPHATE SYNTHASE” (NOVARTIS AG, priority 2008, published 2012):
pIC50: −log10 of the molar value. Structures can show the parent of a compound that is named as a salt.

system: not given; experiment: not given; conditions: not given

melting point	Compound
205 to 208 °C	CCOC(=O)Nc1cc(-c2cccc3ccccc23)c2nc(C(=O)O)ccc2c1 [Example 29, 6-Ethoxycarbonylamino-8-naphthalen-1-yl-quinoline-2-carboxylic acid]
182 to 184 °C	CCOc1c(N)cc(-c2cccc3ccccc23)c2nc(C(=O)O)ccc12 [Example 30, 6-Amino-5-ethoxy-8-naphthalen-1-yl-quinoline-2-carboxylic acid]
164 to 166 °C	O=C(O)c1ccc2cc(-c3ccsc3)cc(-c3cccc4ccccc34)c2n1 [Example 34, 8-Naphthalen-1-yl-6-thiophen-3-yl-quinoline-2-carboxylic acid]

biological target: T1, FPPS (Farnesyl pyrophosphate synthase) (Homo sapiens, UniProt P14324); experiment: FPPS Assay: LC-MS Method; assay type: biochemical; conditions: GPP/IPP 5 μM each, reaction stopped after 10 minutes
T1 sequence (P14324 1-353 isoform P14324-2): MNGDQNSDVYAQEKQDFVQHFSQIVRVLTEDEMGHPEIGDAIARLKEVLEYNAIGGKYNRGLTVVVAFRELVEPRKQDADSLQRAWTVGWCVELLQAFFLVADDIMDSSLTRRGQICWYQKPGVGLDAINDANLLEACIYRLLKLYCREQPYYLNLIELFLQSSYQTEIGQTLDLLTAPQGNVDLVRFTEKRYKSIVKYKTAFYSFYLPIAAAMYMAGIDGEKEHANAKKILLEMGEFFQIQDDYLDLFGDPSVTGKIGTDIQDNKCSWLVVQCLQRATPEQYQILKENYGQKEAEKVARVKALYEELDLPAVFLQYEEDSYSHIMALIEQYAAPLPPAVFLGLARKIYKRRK
Procedure: Recombinant human Farnesyl Pyrophosphate synthase (FPPS) was cloned, expressed and purified as previously described {J.-M. Rondeau et al., ChemMedChem 2006, 1, 267-271.} and stored as a 10 mg/mL stock solution in 25 mM Tris pH 7.4, 25 mM NaCl, 2 mM DTT (dithiothreitol). Geranyl pyrophosphate (GPP) was purchased from Anawa AG (Switzerland) and stored as a 1 mg/mL solution in 4 parts isopropanol:3 parts ammonia:1 part water. 1-[^3H]Isopentenyl pyrophosphate (IPP), 50 Ci/mmol; 1 Ci/mL, was purchased from Anawa AG and stored in ethanol:ammonia hydroxide 1:1 at −80 C. 1-[^3H] Farnesyl pyrophosphate triammonium salt, 100 Ci/mmol; 1 mCi/mL in 70% ethanol, 0.25 M ammonium bicarbonate was purchased from Anawa AG. Phospholipid-coated 384-well image FlashPlates™ were purchased from PerkinElmer. the assay buffer consisted of 20 mM HEPES pH7.4, 5 mM MgCl2 and 1 mM CaCl2.
Selected compounds are assayed in another FPPS based assay:
Into each well of a 384-well plate, 5 μL of compound in 20% DMSO/water is placed. 25 μL of GPP/IPP (5 μM each in assay buffer) is then added. The reaction is started with the addition of 10 μL of FPPS (diluted 1 to 10000 with assay buffer). After 10 minutes, the reaction is stopped by addition of 10 μL of 2 μM FSPP in 2% DMIPA/IPA. The reaction mixture is then extracted with 50 μL of n-pentanol using vortex mixing. After phase separation, 25 μL of the upper (n-pentanol) layer is transferred to a new 384-well plate and the pentanol is evaporated using a vacuum centrifuge. The dried residue is reconstituted in 50 μL of 0.1% DMIPA/water for analysis by the LC/MS/MS method.
LC/MS/MS analyses are performed on a Micromass Quattro Micro interfaced to an Agilent 1100 binary LC pump. Injection is performed by a Gilson 215/889 autosampler using an injection loop size of 2.5 μL. Chromatography is performed on a Waters 2.1×20 mm Xterra MS C18 5 μm guard column (P/N186000652) contained in a guard column holder (P/N 186000262) using 0.1% DMIPA/methanol as solvent A and 0.1% DMIPA/water as solvent B. The gradient is 5% A from 0.00 to 0.30 min, 50% A at 0.31 min, 80% A at 1.00 min, and 5% A from 1.01 to 2.00 min. The flow rate is 0.3 mL/min and the flow is diverted to waste from 0.00 to 0.50 min and again from 1.20 to 2.00 min.
The MRM transitions monitored are 381^−>79^− for FPP and 397^−>159^− for FSPP at a collision energy of 22 eV and a collision cell pressure of 2.1×10^−3 mbar of Ar. The dwell time per transition is 400 msec with a span of 0.4 Da. The interchannel delay and interscan delay are both 0.02 sec. Other mass spectrometric operating parameters are: capillary, 2.0 kV; cone, 35 V; extractor, 2.0 V, source temp., 100° C.; desolvation gas temp., 250° C.; desolvation gas flow, 650 L/hr; cone gas flow, 25 L/hr; multiplier, 650 V.
The total cycle time per sample is 2.5 minutes. Since the analysis is formatted for 384-well plates, a plate is analyzed in 16 hours. The chromatograms are processed using Quanlynx software, which divides the area of individual FPP peaks by the area of the FSPP peaks (internal standard). The resulting values are reported as the relative response for the corresponding sample well.

Compound	pIC50
CCOc1c(I)cc(-c2cccc3ccccc23)c2nc(C(=O)O)ccc12 [Example 33, 5-Ethoxy-6-iodo-8-naphthalen-1-yl-quinoline-2-carboxylic acid lithium salt]	7.25
O=C(O)c1ccc2cc(-c3ccsc3)cc(-c3cccc4ccccc34)c2n1 [Example 34, 8-Naphthalen-1-yl-6-thiophen-3-yl-quinoline-2-carboxylic acid]	7.00
O=C(O)c1ccc2cc(-c3cccs3)cc(-c3cccc4ccccc34)c2n1 [Example 35, 8-Naphthalen-1-yl-6-thiophen-2-yl-quinoline-2-carboxylic acid lithium salt]	6.51
Cc1cccc2c(-c3cccc4ccc(C(=O)O)nc34)cccc12 [Example 38, 8-(5-Methyl-naphthalen-1-yl)-quinoline-2-carboxylic acid]	6.66
Nc1cccc2c(-c3cccc4ccc(C(=O)O)nc34)cccc12 [Example 39, 8-(5-Amino-naphthalen-1-yl)-quinoline-2-carboxylic acid]	6.57
O=[N+]([O-])c1cc(-c2cccc3ccccc23)c2nc(/C=C/P(=O)(O)O)ccc2c1 [Example 43, [(E)-2-(6-Nitro-8-naphthalen-1-yl-quinolin-2-yl)-vinyl]-phosphonic acid]	6.99
CS(=O)(=O)Nc1cc(-c2cccc3ccccc23)c2nc(/C=C/P(=O)(O)O)ccc2c1 [Example 46, [(E)-2-(6-Methanesulfonylamino-8-naphthalen-1-yl-quinolin-2-yl)-vinyl]-phosphonic acid]	7.04
CS(=O)(=O)N(c1cc(-c2cccc3ccccc23)c2nc(/C=C/P(=O)(O)O)ccc2c1)S(C)(=O)=O [Example 47, {(E)-2-[6-(di-methanesulfonyl)amino-8-naphthalen-1-yl-quinolin-2-yl]-vinyl}-phosphonic acid]	6.69

Compounds with a higher pIC50, results first:

pIC50	Compound
7.32	CC(=O)Nc1cc(-c2cccc3ccccc23)c2nc(-c3nn[nH]n3)ccc2c1 [Example 51, N-[8-Naphthalen-1-yl-2-(2H-tetrazol-5-yl)-quinolin-6-yl]-acetamide]
7.43	CCOC(=O)Nc1cc(-c2cccc3ccccc23)c2nc(C(=O)O)ccc2c1 [Example 29, 6-Ethoxycarbonylamino-8-naphthalen-1-yl-quinoline-2-carboxylic acid]
7.59	CC(=O)Nc1cc(-c2cccc3ccccc23)c2nc(/C=C/P(=O)(O)O)ccc2c1 [Example 45, [(E)-2-(6-Acetylamino-8-naphthalen-1-yl-quinolin-2-yl)-vinyl]-phosphonic acid]
7.62	CCOc1c(N)cc(-c2cccc3ccccc23)c2nc(C(=O)O)ccc12 [Example 30, 6-Amino-5-ethoxy-8-naphthalen-1-yl-quinoline-2-carboxylic acid]
7.72	CCOC(=O)Nc1cc(-c2cccc3ccccc23)c2nc(-c3nn[nH]n3)ccc2c1 [Example 50, N-[8-Naphthalen-1-yl-2-(2H-tetrazol-5-yl)-quinolin-6-yl]-carbamic acid ethyl ester]
7.85	COC(=O)Nc1cc(-c2cccc3ccccc23)c2nc(/C=C/P(=O)(O)O)ccc2c1 [Example 44, [(E)-2-(6-Methoxycarbonylamino-8-naphthalen-1-yl-quinolin-2-yl)-vinyl]-phosphonic acid]
7.92	O=C(Nc1cc(-c2cccc3ccccc23)c2nc(/C=C/P(=O)(O)O)ccc2c1)c1cccnc1 [Example 48, ((E)-2-{8-Naphthalen-1-yl-6-[(pyridine-3-carbonyl)-amino]-quinolin-2-yl}-vinyl)phosphonic acid]
8.05	Nc1cc(-c2cccc3ccccc23)c2nc(/C=C/P(=O)(O)O)ccc2c1 [Example 42, [(E)-2-(6-Amino-8-naphthalen-1-yl-quinolin-2-yl)-vinyl]-phosphonic acid]
